Experimental findings from paper PMC7768359, “Synthesis of Platinum(II) Complexes with Some 1-Methylnitropyrazoles and In Vitro Research on Their Cytotoxic Activity” (Pharmaceuticals, 2020) are described below.

The test system of series [1] is HL-60 cells. Briefly: Determination of apoptosis by Annexin V / PI staining. As to conditions: 48 h. It is filed as cell-based, human. As to the method:
(§1) To establish how compounds 1 and 2 influence the cell cycle and cell death, the HL-60 human promyelocytic leukemia cell line was used. The results are outlined in the Figure 7 and Figure 8, respectively. […] This led to disturbances in the cell cycle progression, expressed as a significant decrease in G0/G1 and S phase, compared to the untreated control (Figure 7).
The HL-60 cells and compounds tested were prepared in the same way as for analysis of the cell cycle distribution. The cells were also exposed to camptothecin (2 µg/mL; Sigma-Aldrich, Steinheim, Germany) as a positive control of apoptosis induction. After 48 h of incubation, or in the case of camptothecin after 24 h, the cells were collected and washed in PBS (HIIET, Wroclaw, Poland) supplemented with 2% of fetal bovine serum and counted in a hemacytometer. The cells (2 × 10^5) were washed twice in PBS. Next, cells were suspended in 200 μL of the mixture of HEPES buffer: 10 mM HEPES, 150 mM NaCl, 5 mM KCl, 1 mM MgCl2, 1.8 mM CaCl2, (HIIET, Wroclaw, Poland) and Annexin V-FITC (Alexis Biochemicals, San Diego, CA, USA), each time freshly prepared according to the manufacturer’s recommendations. After 15 min of incubation in darkness at room temperature, propidium iodide (PI) solution (0.1 mg/mL) was added prior to analysis to give a final concentration of 10 µg/mL. […] Data were analyzed in a BD FACS Diva 6.2 program. […]

The nature of series [2]: Qualitative solubility in water. It is filed as physicochemical. As to the method:
A solution of 254 mg (2 mmol) of 1-methyl-4-nitropyrazole in 15 mL of warm water was mixed with a solution of 415 mg (1 mmol) of K2PtCl4 in 5 mL of water. The reaction mixture was maintained in darkness at 25 °C and monitored periodically by TLC until the absence of free ligand (app. 3 weeks). Then, the yellow precipitate was filtered off and dried, giving 480 mg (92%) of the crude mixture, which mainly consisted of two individual Pt complexes (TLC). […] Combustion and spectral analyses for the cis complex 1: Elemental analysis for formula C8H10N6O4Cl2Pt of compound 1: Calculated/Found (%): C 18.47/18.80, H 1.94/1.89, N 16.16/15.97, Cl 13.63/13.70. ^1H NMR (300.15 MHz, acetone-d6): δ[ppm] […] Combustion and spectral analyses for the trans complex 2: Elemental analysis for formula C8H10N6O4Cl2Pt of the trans-complex 2: Calculated/Found (%): C 18.47/18.76, H 1.94/1.84, N 16.16/15.86, Cl 13.63/13.93. ^1H NMR (300.15 MHz, acetone-d6): δ[ppm] […] Analysis of Mass Spectrum (ESI-MS) of both complexes 1 and 2: The calculated value of the parent peak mass for the formula C8H10N6O4Cl2Pt was 518.9789 u.

The test system of series [3] is HL-60 cells. Briefly: Cell cycle analysis (propidium iodide, flow cytometry). It is filed as cell-based, human. As to conditions: 80 µM, 48 h. The procedure: as §1
Cultured HL-60 cells (human acute promyelocytic leukemia) were seeded at a density of 2 × 10^5 cells/mL of culture medium on 24-well plates (Corning, NY, USA) to a final volume of 2 mL. […] The stock solutions of platinum derivatives were prepared as described above.
After 48 h of incubation, the cells were collected and washed in phosphate-buffered saline (PBS; HIIET, Wroclaw, Poland) supplemented with 2% of fetal bovine serum and counted in a hemocytometer. Then, the cells (1 × 10^6 per sample) were washed twice in cold PBS and fixed for 24 h in 70% ethanol at −20 °C. Following this, the cells were washed twice in PBS and incubated with RNAse (8 μg/mL, Fermentas GmbH, St. Leon-Rot, Germany) at 37 °C for 1 h. Finally, the cells were stained for 30 min with propidium iodide (0.5 mg/mL; Sigma-Aldrich, Steinheim, Germany) at 4 °C and the cellular DNA content was determined using a BD LSR Fortessa instrument (Becton Dickinson, San Jose, CA, USA) and WinMDI 2.8 software. The experiment was repeated at least three times.

Molecules are shown by their SMILES.

As to `Cn1cc([N+](=O)[O-])c[n+]1[Pt@SP3-2]([Cl])([Cl])[n+]1cc([N+](=O)[O-])cn1C` [Compound 2, trans-dichloridobis(1-methyl-4-nitropyrazole)platinum(II)], in series [1] (compared to 0.3 µM cisplatin and control), the “effect on the number of necrotic and late apoptotic HL-60 cells” value is “did not show any substantial effect”. For the same molecule, the solubility in water entry in series [2] is “very poorly in water”.

As to `Cn1cc([N+](=O)[O-])c[n+]1[Pt@SP2-2]([Cl])([Cl])[n+]1cc([N+](=O)[O-])cn1C` [Compound 1, cis-dichloridobis(1-methyl-4-nitropyrazole)platinum(II)], the “cell death (Sub-G1) and cell cycle progression of HL-60 cells” value in series [3] is “induced cell death (Sub-G1)”. In series [1] (HL-60, 80 µM), the “proapoptotic activity (Annexin V / propidium iodide)” value was “statistically significant increase in early and late apoptotic cells”. Also, in series [2], the solubility in water entry is given as “poorly in water”.
